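48-hour exposure; five concentrations; linearly interpolated endpoints. TGI: concentration producing complete growth inhibition.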
Columns and labels:
Assay in all cases: NCI tumour cell line growth inhibition, 48 h
NCI-H460 lung = system: NCI-H460 lung
PC-3 prostate = system: PC-3 prostate
NCI-H522 lung = system: NCI-H522 lung
MDA-MB-435 = system: MDA-MB-435
M19-MEL melanoma = system: M19-MEL melanoma
HOP-92 NSCLC = system: HOP-92 NSCLC
SNB-78 CNS = system: SNB-78 CNS
K-562 leukemia = system: K-562 leukemia
MDA-N = system: MDA-N
HOP-62 NSCLC = system: HOP-62 NSCLC
HCT-15 colon = system: HCT-15 colon
OVCAR-3 ovarian = system: OVCAR-3 ovarian
BT-549 breast = system: BT-549 breast
LXFL 529 NSCLC = system: LXFL 529 NSCLC
HCT-116 colon = system: HCT-116 colon
IGROV1 ovarian = system: IGROV1 ovarian
SNB-75 CNS = system: SNB-75 CNS
A549 NSCLC = system: A549 NSCLC
NCI/ADR-RES ovarian = system: NCI/ADR-RES ovarian
SF-539 CNS = system: SF-539 CNS
A498 renal = system: A498 renal
RPMI-8226 leukemia = system: RPMI-8226 leukemia
SR leukemia = system: SR leukemia
KM12 colon = system: KM12 colon
U251 CNS = system: U251 CNS
LOX IMVI melanoma = system: LOX IMVI melanoma
COLO 205 colon = system: COLO 205 colon
MDA-MB-231 breast = system: MDA-MB-231 breast
KM20L2 colon = system: KM20L2 colon
SF-295 CNS = system: SF-295 CNS
SK-OV-3 ovarian = system: SK-OV-3 ovarian
SK-MEL-28 melanoma = system: SK-MEL-28 melanoma
HL-60(TB) leukemia = system: HL-60(TB) leukemia
DMS 273 small cell lung = system: DMS 273 small cell lung
SW-620 colon = system: SW-620 colon
UACC-257 melanoma = system: UACC-257 melanoma
MCF7 breast = system: MCF7 breast
T-47D breast = system: T-47D breast
DU-145 prostate = system: DU-145 prostate
DMS 114 small cell lung = system: DMS 114 small cell lung
HS 578T breast = system: HS 578T breast
NCI-H23 lung = system: NCI-H23 lung
HCC-2998 colon = system: HCC-2998 colon
SK-MEL-2 melanoma = system: SK-MEL-2 melanoma
SF-268 CNS = system: SF-268 CNS
SN12C renal = system: SN12C renal
DLD-1 colon = system: DLD-1 colon
M14 melanoma = system: M14 melanoma
HT29 colon = system: HT29 colon
TK-10 renal = system: TK-10 renal
ACHN renal = system: ACHN renal
EKVX NSCLC = system: EKVX NSCLC
XF 498 CNS = system: XF 498 CNS
SK-MEL-5 melanoma = system: SK-MEL-5 melanoma
UO-31 renal = system: UO-31 renal
OVCAR-5 ovarian = system: OVCAR-5 ovarian
MALME-3M melanoma = system: MALME-3M melanoma
RXF 393 renal = system: RXF 393 renal
OVCAR-4 ovarian = system: OVCAR-4 ovarian
CAKI-1 renal = system: CAKI-1 renal
NCI-H226 lung = system: NCI-H226 lung
HOP-18 NSCLC = system: HOP-18 NSCLC
SNB-19 CNS = system: SNB-19 CNS
UACC-62 melanoma = system: UACC-62 melanoma
CCRF-CEM leukemia = system: CCRF-CEM leukemia
OVCAR-8 ovarian = system: OVCAR-8 ovarian
786-0 renal = system: 786-0 renal
MOLT-4 leukemia = system: MOLT-4 leukemia

## Cn1c2ccccc2c2ccc3c(c21)C(=O)C=CC3=O
NCI-H460 lung
  TGI: 46.4 µM
PC-3 prostate
  TGI: 12.2 µM
NCI-H522 lung
  TGI: 6.36 µM
MDA-MB-435
  TGI: 10.9 µM
M19-MEL melanoma
  TGI: 24.5 µM
HOP-92 NSCLC
  TGI: 4.66 µM
SNB-78 CNS
  TGI: 48.4 µM
K-562 leukemia
  TGI: > 45.1 µM
MDA-N
  TGI: 19.3 µM
HOP-62 NSCLC
  TGI: 48 µM
HCT-15 colon
  TGI: 12.1 µM
OVCAR-3 ovarian
  TGI: 20.9 µM
BT-549 breast
  TGI: 18.9 µM
LXFL 529 NSCLC
  TGI: 8.26 µM
HCT-116 colon
  TGI: 10.9 µM
IGROV1 ovarian
  TGI: 29.9 µM
SNB-75 CNS
  TGI: 32.5 µM
A549 NSCLC
  TGI: 61 µM
NCI/ADR-RES ovarian
  TGI: 14.4 µM
SF-539 CNS
  TGI: 26.3 µM
A498 renal
  TGI: > 59.4 µM
RPMI-8226 leukemia
  TGI: 14.6 µM
SR leukemia
  TGI: 15.9 µM
KM12 colon
  TGI: 60.7 µM
U251 CNS
  TGI: 25.1 µM
LOX IMVI melanoma
  TGI: 10.5 µM
COLO 205 colon
  TGI: 6.9 µM
MDA-MB-231 breast
  TGI: 18.7 µM
KM20L2 colon
  TGI: 33.9 µM
SF-295 CNS
  TGI: 42.1 µM
SK-OV-3 ovarian
  TGI: 33.2 µM
SK-MEL-28 melanoma
  TGI: 25.7 µM
HL-60(TB) leukemia
  TGI: 11.8 µM
DMS 273 small cell lung
  TGI: 25.8 µM
SW-620 colon
  TGI: 4.46 µM
UACC-257 melanoma
  TGI: 23.1 µM
MCF7 breast
  TGI: 8.96 µM
T-47D breast
  TGI: 10.7 µM
DU-145 prostate
  TGI: 29.5 µM
DMS 114 small cell lung
  TGI: 21.5 µM
HS 578T breast
  TGI: 58.5 µM
NCI-H23 lung
  TGI: 27.3 µM
HCC-2998 colon
  TGI: 15.1 µM
SK-MEL-2 melanoma
  TGI: 29.9 µM
SF-268 CNS
  TGI: 30.5 µM
SN12C renal
  TGI: 26.5 µM
DLD-1 colon
  TGI: 6.02 µM
M14 melanoma
  TGI: 22.1 µM
HT29 colon
  TGI: 26 µM
TK-10 renal
  TGI: 12.2 µM
ACHN renal
  TGI: 8.33 µM
EKVX NSCLC
  TGI: 38.6 µM
XF 498 CNS
  TGI: 4.88 µM
SK-MEL-5 melanoma
  TGI: 31 µM
UO-31 renal
  TGI: 13.7 µM
OVCAR-5 ovarian
  TGI: 28.3 µM
MALME-3M melanoma
  TGI: 12.2 µM
RXF 393 renal
  TGI: 5.96 µM
OVCAR-4 ovarian
  TGI: 4.08 µM
CAKI-1 renal
  TGI: 11.8 µM
NCI-H226 lung
  TGI: 51 µM
HOP-18 NSCLC
  TGI: 5.58 µM
SNB-19 CNS
  TGI: 46.4 µM
UACC-62 melanoma
  TGI: 26.7 µM
CCRF-CEM leukemia
  TGI: 14.5 µM
OVCAR-8 ovarian
  TGI: 31.1 µM
786-0 renal
  TGI: 9.2 µM

## O=C(/C=C/c1cccc([N+](=O)[O-])c1)c1cccnc1
NCI-H460 lung
  TGI: > 100 µM
NCI-H522 lung
  TGI: 25.3 µM
M19-MEL melanoma
  TGI: > 67.9 µM
HOP-92 NSCLC
  TGI: > 100 µM
SNB-78 CNS
  TGI: > 94.2 µM
K-562 leukemia
  TGI: > 78.5 µM
HOP-62 NSCLC
  TGI: > 100 µM
HCT-15 colon
  TGI: > 100 µM
MOLT-4 leukemia
  TGI: 63.5 µM
OVCAR-3 ovarian
  TGI: 68.8 µM
LXFL 529 NSCLC
  TGI: 43 µM
HCT-116 colon
  TGI: 33.3 µM
IGROV1 ovarian
  TGI: 70.4 µM
SNB-75 CNS
  TGI: > 91.5 µM
A549 NSCLC
  TGI: > 100 µM
SF-539 CNS
  TGI: 48.3 µM
A498 renal
  TGI: > 62.9 µM
RPMI-8226 leukemia
  TGI: 44.8 µM
SR leukemia
  TGI: 62.5 µM
KM12 colon
  TGI: 43.3 µM
U251 CNS
  TGI: 56.1 µM
LOX IMVI melanoma
  TGI: 40.1 µM
COLO 205 colon
  TGI: > 87.1 µM
KM20L2 colon
  TGI: > 67.8 µM
SF-295 CNS
  TGI: > 100 µM
SK-OV-3 ovarian
  TGI: > 100 µM
SK-MEL-28 melanoma
  TGI: 60.8 µM
HL-60(TB) leukemia
  TGI: 48.3 µM
DMS 273 small cell lung
  TGI: 69.6 µM
SW-620 colon
  TGI: 37.5 µM
UACC-257 melanoma
  TGI: 97.7 µM
DMS 114 small cell lung
  TGI: 52.9 µM
NCI-H23 lung
  TGI: 44.8 µM
HCC-2998 colon
  TGI: > 66.1 µM
SK-MEL-2 melanoma
  TGI: > 100 µM
SF-268 CNS
  TGI: > 86.4 µM
SN12C renal
  TGI: > 62.9 µM
DLD-1 colon
  TGI: 52.2 µM
M14 melanoma
  TGI: 19.6 µM
HT29 colon
  TGI: 42.9 µM
TK-10 renal
  TGI: > 100 µM
ACHN renal
  TGI: > 100 µM
EKVX NSCLC
  TGI: > 100 µM
XF 498 CNS
  TGI: > 81.1 µM
SK-MEL-5 melanoma
  TGI: 22.3 µM
UO-31 renal
  TGI: > 70.7 µM
OVCAR-5 ovarian
  TGI: > 100 µM
MALME-3M melanoma
  TGI: > 100 µM
RXF 393 renal
  TGI: 34.4 µM
OVCAR-4 ovarian
  TGI: > 100 µM
CAKI-1 renal
  TGI: > 90.8 µM
NCI-H226 lung
  TGI: > 100 µM
HOP-18 NSCLC
  TGI: > 31.2 µM
SNB-19 CNS
  TGI: > 94.7 µM
UACC-62 melanoma
  TGI: > 82.4 µM
CCRF-CEM leukemia
  TGI: 59.2 µM
OVCAR-8 ovarian
  TGI: > 100 µM
786-0 renal
  TGI: 30.5 µM
